{"source": "patent US20240139167A1", "about": "“LYSOSOME-ASSOCIATED MEMBRANE PROTEIN TARGETING COMPOUNDS AND USES THEREOF” (HADASIT MEDICAL RESEARCH SERVICES AND DEVELOPMENT LTD., priority 2021, published 2024)", "key": {"[1]": {"assay": "Safety assessment in wild type mice, 3 months", "type": "in vivo", "method": "FIG. 10 includes a graph of the body weights of wild type C57B16J mice treated with Compound 1 for 3 months. Mice were injected twice a week with 150 μL of Compound 1 at 250 mg/kg in 5% DMSO, or an equal volume of 5% DMSO (V, vehicle) control. Injections were intravenous for the first month and then subcutaneously for the following 2 months;\nFIG. 11 includes images of brain, liver, skeletal muscle, and heart tissue slices of wild type C57B16J mice treated for 3 months with Compound 1. The slices were stained by H&E staining in order to visualize lesions. No lesions were apparent in either treatment. Scale bars, 500 μm (brain), 100 μm (liver), 200 µm (muscle), 100 μm (heart).\nThe inventors have tested Compound 1 (FIG. 1A) for its capacity to correct the deficient motor phenotypes and short lifespan in the APBD mouse model Gbe^ys/ys. Compound 1 is one of 19 PG reducing HTS hits previously discovered by the inventors. It was selected by in silico ADMET (Absorption, Distribution, Metabolism, Excretion, and Toxicity) tests run on these hits to predict which of them should be safe and pharmacokinetically and pharmacodynamically preferred and is therefore worth further pursuit (FIG. 8, compound “A”). […] Following 1 h and 24 h treatments, mice were also examined for abnormal spontaneous behavior, such as immobility, excessive running, stereotyped movements, and abnormal posture (Irwin tests)."}, "luminal portion of LAMP1": {"biological_target": "T1, luminal portion of LAMP1 (Homo sapiens, UniProt P11279)", "T1 sequence (P11279 29-382 limits assumed)": "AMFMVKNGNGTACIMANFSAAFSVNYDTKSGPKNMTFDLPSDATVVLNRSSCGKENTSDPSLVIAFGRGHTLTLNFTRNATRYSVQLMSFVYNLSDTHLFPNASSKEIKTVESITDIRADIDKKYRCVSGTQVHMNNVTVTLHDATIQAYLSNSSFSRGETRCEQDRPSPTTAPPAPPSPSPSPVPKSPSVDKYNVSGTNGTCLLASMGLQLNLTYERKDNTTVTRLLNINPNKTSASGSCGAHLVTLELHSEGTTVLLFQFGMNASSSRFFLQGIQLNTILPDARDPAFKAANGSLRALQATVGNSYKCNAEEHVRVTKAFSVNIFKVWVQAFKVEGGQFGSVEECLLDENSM", "assay": "Surface plasmon resonance (SPR)", "type": "binding", "excerpt": "FIGS. 5A-5E include images of experiments showing hetero-assembly forms around Compound 1 and not around endogenous molecules as shown by the liquid crystals formed in experiments 1-3 (5A); image of STRING network of targets at the interactome of Compound 1 (5B); cellular thermal shift assay (CETSA) of different targets of the Compound 1 hetero-assembly (5C); surface plasmon resonance sensograms of binding of Compound 1 to LAMP1 (5D); sensogram experiments consisting of association and dissociation at the indicated concentration ranges and pH values were then conducted.\nThe inventors have investigated the mechanism of action of 144DG11. To that end, the inventors first decided to determine its molecular target. Nematic protein organization technique (NPOT, Inoviem, Ltd.) was applied to homogenates of APBD patient fibroblasts. The NPOT analysis has discovered protein hetero assemblies uniquely generated around 144DG11 only when it was added to the cell homogenates (FIG. 5A). The next step in this analysis has identified the interactome of protein targets interacting with 144DG11 in APBD patients' fibroblasts. […] Moreover, the inventors have tested by cellular thermal shift assay the specific interaction of 144DG11 with 6 of the 8 targets discovered by NPOT. […] This finding relates to a novel pathogenic hypothesis connecting cellular glycogen overload with glycogen trafficking to lysosomes via Starch Binding Domain containing Protein 1. To validate 144DG11's interaction with LAMP1, the inventors have used surface plasmon resonance (SPR) technology. […] The inventors hypothesized that this slow rate of association could be explained by inhibited diffusion of 144DG11 due to the bulky oligosaccharides at the glycosylation sites. Therefore, the inventors have repeated the SPR experiments with a chemically deglycosylated luminal LAMP1 domain. […] The inventors have further investigated 144DG11 binding to LAMP1 by structure-based computational docking. In the search for a putative binding site for Compound 1 in LAMP1, the inventors have analyzed the N- and C-terminal subdomains of its luminal domain (residues A29-R195 and S217-D378, respectively), which have a similar topology. These domains were modeled and computationally docked against decoys to Compound 1 at the intralysosomal pH 5 based on the known crystal structure of mouse LAMP1 C-terminal domain (PDB ID 5gv0). […] However, they might still affect Compound 1 diffusion."}, "[2]": {"biological_target": "T2, deglycosylated luminal LAMP1 domain (Homo sapiens, UniProt P11279)", "T2 construct": "repeated the SPR experiments with a chemically deglycosylated luminal LAMP1 domain", "T2 sequence (P11279 29-382)": "T1 sequence (P11279 29-382 limits assumed)", "assay": "SPR with chemically deglycosylated LAMP1", "type": "binding", "method": "The inventors have investigated the mechanism of action of 144DG11. To that end, the inventors first decided to determine its molecular target. Nematic protein organization technique (NPOT, Inoviem, Ltd.) was applied to homogenates of APBD patient fibroblasts. The NPOT analysis has discovered protein hetero assemblies uniquely generated around 144DG11 only when it was added to the cell homogenates (FIG. 5A). The next step in this analysis has identified the interactome of protein targets interacting with 144DG11 in APBD patients' fibroblasts. […] Moreover, the inventors have tested by cellular thermal shift assay the specific interaction of 144DG11 with 6 of the 8 targets discovered by NPOT. […] This finding relates to a novel pathogenic hypothesis connecting cellular glycogen overload with glycogen trafficking to lysosomes via Starch Binding Domain containing Protein 1. To validate 144DG11's interaction with LAMP1, the inventors have used surface plasmon resonance (SPR) technology. […] The inventors hypothesized that this slow rate of association could be explained by inhibited diffusion of 144DG11 due to the bulky oligosaccharides at the glycosylation sites. […] In the search for a putative binding site for Compound 1 in LAMP1, the inventors have analyzed the N- and C-terminal subdomains of its luminal domain (residues A29-R195 and S217-D378, respectively), which have a similar topology. […]"}, "APBD primary fibroblasts": {"system": "APBD primary fibroblasts", "assay": "Autophagic flux (LC3II/LC3I with lysosomal inhibitors, p62)", "type": "cell-based, human", "excerpt": "(§1) FIGS. 6A-6E include bar graphs of autophagic flux, determined by the extent of lysosomal inhibitors-dependent increase in the ratio of lipidated to non-lipidated LC3 (LC3II/LC3I) (6A); representative TEM images of liver tissue from 9.5 month old Gbe^ys/ys mice treated with Compound 11, or 5% DMSO vehicle (6B), G: Glycogen (alpha particles) and polyglucosan (structures with variable electron densities), L: Lysosomes, M: Mitochondria; right panel: lysosomal glycogen stain was quantified by ImageJ “count particle” tool; micrograph of LAMP1 knocked down and control APBD primary skin fibroblasts treated or not with Compound 1 and lysosomal inhibitors (LI) and quantification of 3 experiments and results of Student's t-tests. *, p<0.1; **, p<0.05; ***, p<0.01 (6C); graphs of lysosomal pH changes determined in APBD primary fibroblasts transduced with lentiviruses encoding for GFP or GFP-shLAMP1 and treated or not with Compound 1 for 24 h and confocal microscope images of cells treated with Lysosensor and stained for PAS (6D); and bar graph of ATP production rate assay in LAMP1-KD and GFP (Control) cells treated for 24 h (chronic) or on assay (acute) with Compound 1 (6E)."}, "[3]": {"system": "LAMP1-KD and control APBD fibroblasts", "assay": "ATP Rate Assay in LAMP1-KD and control cells", "type": "cell-based, human", "excerpt": "as §1\nTo test the effect of LAMP1-KD and Compound 1 on fuel utilization, the inventors again used the ATP Rate Assay (FIGS. 4A-4D) in LAMP1-KD and control APBD fibroblasts acutely or chronically treated with Compound 1."}}}
{"molecule": "COCCN(Cc1sccc1C)C(=O)c1cc(C)nc(O)c1", "note": "[Compound 1]", "values": [{"measurement": "animals' weight gain over time", "setting": "[1]; 3 months at 250 mg/kg in 5% DMSO", "result": "did not influence"}, {"measurement": "histopathological damage or lesions in brain, liver, skeletal muscle, and heart", "setting": "[1]; after 3 months exposure", "result": "did not produce any histopathological damage or lesions"}, {"measurement": "binding to LAMP1", "setting": "luminal portion of LAMP1; cytoplasmic pH 7", "result": "not at the cytoplasmic pH 7"}, {"measurement": "binding to LAMP1", "setting": "luminal portion of LAMP1; intermediate pH 6", "result": "some binding starting"}, {"measurement": "binding to LAMP1", "setting": "luminal portion of LAMP1; lysosomal pH 4.5-5", "result": "specific and dose-dependent binding"}, {"measurement": "kon (rate of association)", "setting": "luminal portion of LAMP1; pH 4.5", "result": "slow"}, {"measurement": "Kd", "setting": "luminal portion of LAMP1; read-out: apparent KD", "result": 6.3, "unit": "mM"}, {"measurement": "binding to deglycosylated LAMP1", "setting": "[2]", "result": "did not bind"}, {"measurement": "autophagic flux (sensitivity of LC3ii/LC3i ratio to lysosomal inhibitors)", "setting": "APBD primary fibroblasts", "result": "increased autophagic flux"}, {"measurement": "level of the autophagy substrate p62", "setting": "APBD primary fibroblasts", "result": "lowering the level of the autophagy substrate p62"}, {"measurement": "ATP production", "setting": "[3]; LAMP1-KD cells, non-starved, chronic and acute", "result": "significantly increased total and respiratory ATP production"}, {"measurement": "ATP production", "setting": "[3]; LAMP1-KD cells, starved, acute", "result": "increased both respiratory and glycolytic ATP"}, {"measurement": "ATP production", "setting": "[3]; LAMP1-KD cells, starved, chronic", "result": "only respiratory ATP production increased"}, {"measurement": "ATP production", "setting": "[3]; control cells, non-starved", "result": "only slightly influenced ATP production, and even acutely decreased it"}, {"measurement": "ATP production", "setting": "[3]; control cells, starved, acute", "result": "only increased respiratory ATP production"}, {"measurement": "ATP production", "setting": "[3]; control cells, starved, chronic", "result": "No significant effect"}]}
